# Test results taken from patent US9188595B2, “Alzheimer's disease diagnosis based on mitogen-activated protein kinase phosphorylation” (Blanchett Rockefeller Neurosciences Institute, priority 2001, dated 2015).
# Columns and labels:
# Erk1/2 = experiment: BK-stimulated Erk1/2 phosphorylation in skin fibroblasts (Western blot, normalized to total Erk1/2); assay type: cell-based, human; conditions: 10 nM BK 5 min
# Method: Banked AC and AD fibroblasts were grown to 80-100% confluence before they were “starved” in a serum-free DMEM overnight. Cells were treated with 10 nM BK at 37° C. for different intervals to establish a time course for BK effects. The same volume of PBS was added to a control flask of cells of each line. The reaction was terminated by removing the medium, rapidly rinsing the cells with pre-cooled PBS, pH 7.4, and transferring the flask onto dry ice/ethanol.
# (§1) For inhibition studies, cells were preincubated with the following concentration of inhibitor at 37° C. for the intervals indicated: 2ABP (50 μM for 30 min); PP1 (10 μM for 15 min); Ly294002 (5 μM for 15 min); and BiSM-1 (5 μM for 15 min). A parallel control flask was incubated with an identical volume of DMSO vehicle. At the end of this incubation, the same inhibitor at the indicated concentration was added and followed immediately by BK to a final concentration of 10 nM. BK (10 nM) was also added to DMSO controls. Basal controls were cells to which neither BK nor inhibitors were added. After a 5-min incubation at 37° C., the reaction was terminated as above.
# Cell lysates were prepared from cells of the various groups. Flasks were moved from dry ice/ethanol to ice water. Each flask received 1 ml of lysis buffer (10 mM Tris pH 7.4, 150 mM NaCl, 1 mM EDTA, 1 mM EGTA, pH 8, 0.5% NP-40, 1% Triton X-100, 1% protease inhibitor cocktail (Sigma), 1% cocktail of serine/threonine (Ser/Thr) phosphatase inhibitor and tyrosine (Tyr) phosphatase inhibitor (Sigma). After rocking on an end-to-end shaker in a cold room for 30 min, cells were collected from each flask with a cell scraper. […]
# Cell lysates were boiled in an equal volume of 2× SDS-sample buffer for 10 min. […] Phosphorylated Erk1/2 was detected with anti-phospho-Erk1/2 antibody using the SuperSignal ECL detection kit. […]
# Signals from phosphorylated and nonphosphorylated Erk1/2 (or CREB) were scanned with a Fuji film LAS-1000 Plus scanner. The mean optical density of each protein band was measured using NIH Image software. […]
# CREB = experiment: BK-stimulated CREB phosphorylation (Ser133) and total CREB in skin fibroblasts (Western blot); assay type: cell-based, human; conditions: 10 nM BK 10 min; for Effect on expression of the CREB protein: 10 μM for 15 min
# Method: FIGS. 5A, 5B1, 5B2, 5C1 and 5C2. Changes in phosphorylation of, and amounts of CREB after BK stimulation. AC and AD cells were treated with 10 nM BK for 5 or 10 min. Phosphorylated CREB (P-CREB) was measured using a anti-phospho-CREB-Serl33 antibody on Western blots. The mean densities of P-CREB were normalized against the total amount of CREB measured using an anti-“regular CREB” antibody and subjected to statistic analyses.
# FIGS. 6A1, 6A2, 6B1, 6B2, 6C1 and 6C2. Effects of different inhibitors on BK-stimulated phosphorylation of CREB. AC and AD cells were preincubated at 37° C. for 15 min with 5 μM BiSM-1 (FIG. 6A), 10 μM PP1 (FIG. 6B), or 5 μM Ly294002 (FIG. 6C) before incubation with 10 nM BK for 10 min Nointalization was performed as with FIGS. 5A-5C and statistical significance of differences were evaluated by 2-way ANOVA. **p<0.0001; *p<0.05.
# as §1
# CREB was detected using analogous methods.
# Signals from phosphorylated and nonphosphorylated Erk1/2 (or CREB) were scanned with a Fuji film LAS-1000 Plus scanner. The mean optical density of each protein band was measured using NIH Image software. Values from the phosph-Erk1/2 signals were normalized respectively against the total signal of Erk1/2. After normalization, data from treated cells was converted to a percentage of the basal control and subjected to statistical analyses.
# [1] = AC and AD cells, preincubation 10 μM for 15 min
smiles,measurement,setting,value
"CN(C)CCCn1cc(C2=C(c3c[nH]c4ccccc34)C(=O)NC2=O)c2ccccc21 [BiSM-1, bisindolylmaleimide-1]",Effect on BK-induced phosphorylation of Erk1/2,"Erk1/2; both AC and AD cells, preincubation 5 μM for 15 min",abolished
same,Effect on BK-stimulated CREB phosphorylation,"CREB; AC and AD cells (no group effect), preincubation 5 μM for 15 min",completely abolished
O=c1cc(N2CCOCC2)oc2c(-c3ccccc3)cccc12 [LY294002],Effect on BK-induced Erk1/2 phosphorylation,"Erk1/2; AD cells, preincubation 5 μM for 15 min",failed to inhibit
Cc1ccc(-c2nn(C(C)(C)C)c3ncnc(N)c23)cc1 [PP1],Effect on BK-induced Erk1/2 phosphorylation,Erk1/2; [1],completely inhibited
same,Effect on BK-stimulated CREB phosphorylation,CREB; [1],inhibited
same,Effect on expression of the CREB protein,CREB; AD cells,not observed
same,Effect on expression of the CREB protein,CREB; control (AC) cells,increased expression of the CREB protein
